The results in this text go back to patent publication US11000491B2, “Amino-aryl-benzamide compounds and methods of use thereof” (HEPANOVA, INC., priority 2017, dated 2021).

Common to all, as to assay type: cell-based
One assay relates to Huh7 cells. Put plainly: LD content in Huh7 cells pre-treated with insulin, Oil-Red-O staining, absorbance OD 540 nm. Conditions: procedure of Example 3, read-out: LD content inhibition (EC50). The method in brief: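 Huh7 cells, mock-treated or pre-treated with 1 mM insulin, were then exposed to compound at the indicated amounts. Lipid droplets stained with Oil Red O and quantified by absorbance at OD 540 nm.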

The subject of another assay is SREBP-1. The experiment in a line: SREBP-1 expression in cultured primary human hepatocytes. Conditions: procedure of Example 6, read-out: SREBP-1 mRNA inhibition (EC50). The gist of the method: (§1)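 Primary human hepatocytes in culture exposed to a range of HPN-01 derivative concentrations; SREBP-1 and SREBP-2 mRNA expression then measured to assess inhibition.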
In the next assay the test system is SREBP-2. The experiment in a line: SREBP-2 expression in cultured primary human hepatocytes. The note with it: procedure of Example 6, read-out: SREBP-2 mRNA inhibition (EC50). The gist of the method:
as §1

[1] abbreviates: Homo sapiens, Huh-7, Huh7 cells.

One may read the EC50 as the concentration at which the effect is half-maximal.

Like-named read-outs stand apart in the source and are kept apart here.

Regarding `COC(=O)c1cccc(Nc2cc(C(N)=O)c(N)c(-c3ccc(S(N)(=O)=O)cc3)c2)c1` [HPN-01319, methyl 3-((6-amino-5-carbamoyl-4′-sulfamoyl-[1,1′-biphenyl]-3-yl)amino)benzoate], the EC50 in the assay with Huh7 cells (setting [1]) was 630 nM; with SREBP-1 (Homo sapiens, Hepatocyte) it was 4800 nM; with SREBP-2 (Homo sapiens, Hepatocyte), 3420 nM.

“(E)-2-amino-5-styryl-4′-sulfamoyl-[1,1′-biphenyl]-3-carboxamide [HPN-01101]”: the EC50 is 570 nM in the assay with Huh7 cells (Huh7 cells), 2960 nM with SREBP-1 and 6980 nM with SREBP-2.

As for `CCCC(=O)Nc1ccc(-c2cc(-c3ccc(Cl)cc3)cc(C(N)=O)c2N)cc1` [HPN-01409, 4′-amino-4″-butyramido-4-chloro-[1,1′:3′,1″-terphenyl]-5′-carboxamide], the EC50 in the assay on Huh7 cells (setting [1]) is 500 nM; with SREBP-1 (Homo sapiens, Hepatocyte), 1050 nM; with SREBP-2 (Homo sapiens, Hepatocyte), 1420 nM.

In the case of `NC(=O)c1cc(/C=C/c2ccc(Br)cc2)cc(-c2ccc(S(N)(=O)=O)cc2)c1N` [HPN-01109, (E)-2-amino-5-(4-bromostyryl)-4′-sulfamoyl-[1,1′-biphenyl]-3-carboxamide], the EC50 in the assay with Huh7 cells (setting [1]) was determined as 1370 nM; with SREBP-1 (Homo sapiens, Hepatocyte) it was 2710 nM; in the assay with SREBP-2 (Homo sapiens, Hepatocyte), 4460 nM.

For `NC(=O)c1cc(-c2ccc(Cl)cc2)cc(Oc2cccc(S(=O)(=O)NCCO)c2)c1N` [HPN-01422, 4-amino-4′-chloro-5-(3-(N-(2-hydroxyethyl)sulfamoyl)phenoxy)-[1, 1′-biphenyl]-3-carboxamide], the EC50 in the assay on Huh7 cells (setting [1]) was found to be 1440 nM; in the assay with SREBP-1 (Homo sapiens, Hepatocyte), 1520 nM; with SREBP-2 (Homo sapiens, Hepatocyte), 3930 nM.

Turning to `NC(=O)c1cc(-c2ccc(Cl)nc2)cc(-c2ccc(S(N)(=O)=O)cc2)c1N` [HPN-01307, 2-amino-5-(6-chloropyridin-3-yl)-4′-sulfamoyl-[1,1′-biphenyl]-3-carboxamide], the EC50 with Huh7 cells (setting [1]) is 1360 nM; in the assay with SREBP-1 (Homo sapiens, Hepatocyte), 5680 nM; in the assay with SREBP-2 (Homo sapiens, Hepatocyte), 4590 nM.

Regarding `CCOC(=O)c1ccc(-c2cc(C(N)=O)c(N)c(-c3ccc(S(N)(=O)=O)cc3)c2)cc1` [HPN-01302, ethyl 4′-amino-5′-carbamoyl-4″-sulfamoyl-[1,1′:3′,1″-terphenyl]-4-carboxylate], the EC50 in the assay on Huh7 cells (setting [1]) turned out to be 1030 nM; in the assay with SREBP-1 (Homo sapiens, Hepatocyte), 3160 nM; with SREBP-2 (Homo sapiens, Hepatocyte), 4520 nM.

Regarding `N=C(N)Nc1ccc(-c2cc(-c3ccc(Cl)cc3)cc(C(N)=O)c2N)cc1` [HPN-01417, 4′-amino-4-chloro-4″-guanidino-[1,1′:3′,1″-terphenyl]-5′-carboxamide], the EC50 in the assay with Huh7 cells (setting [1]) is 1260 nM; in the assay with SREBP-1 (Homo sapiens, Hepatocyte), 3150 nM; in the assay on SREBP-2 (Homo sapiens, Hepatocyte), 4920 nM.

For the molecule “methyl (E)-3-(6-amino-4′-(amino-(methylene)sulfinyl)-5-carbamoyl-[1,1′-biphenyl]-3-yl)acrylate [HPN-01114]”, the EC50 in the assay on Huh7 cells (Huh7 cells) stood at 210 nM; in the assay with SREBP-1 it was 1270 nM; with SREBP-2 it was 2470 nM.

Take `NC(=O)c1cc(-c2ccc(Cl)cc2)cc(-c2ccc(S(N)(=O)=O)cc2)c1NC(=O)C1CC1` [HPN-01503, 4-chloro-4′-(cyclopropanecarboxamido)-4″-sulfamoyl-[1,1′:3′,1″-terphenyl]-5′-carboxamide]: the EC50 is 700 nM with Huh7 cells (setting [1]); 3940 nM in the assay on SREBP-1 (Homo sapiens, Hepatocyte); 6480 nM with SREBP-2 (Homo sapiens, Hepatocyte).

Consider `COc1ccc(C#Cc2cc(C(N)=O)c(N)c(-c3ccc(S(N)(=O)=O)cc3)c2)cc1` [HPN-01204, 2-amino-5-((4-methoxyphenyl)ethynyl)-4′-sulfamoylbiphenyl-3-carboxamide], for which the EC50 in the assay with Huh7 cells (setting [1]) was found to be 1010 nM; in the assay with SREBP-1 (Homo sapiens, Hepatocyte), 4180 nM; in the assay on SREBP-2 (Homo sapiens, Hepatocyte) it was 4590 nM.

For the molecule “4-(4′-amino-4-bromo-4″-sulfamoyl-[1,1′:3′,1″-terphenyl]-5′-yl)piperazine-1-carboxamide [HPN-01624]”, the EC50 in the assay on Huh7 cells (Huh7 cells) amounted to 1300 nM; in the assay with SREBP-1, 7540 nM; with SREBP-2, 13500 nM.

Turning to `COc1cccc(C(=O)OCC#Cc2cc(C(N)=O)c(N)c(-c3ccc(S(N)(=O)=O)cc3)c2)c1` [HPN-01216, 3-(6-amino-5-carbamoyl-4′-sulfamoyl-[1,1′-biphenyl]-3-yl)prop-2-yn-1-yl 3-methoxybenzoate], the EC50 in the assay on Huh7 cells (setting [1]) is 960 nM; in the assay on SREBP-1 (Homo sapiens, Hepatocyte) it was 4350 nM; in the assay on SREBP-2 (Homo sapiens, Hepatocyte), 7930 nM.

`NC(=O)c1cc(C#Cc2ccc(Cl)cc2)cc(-c2ccc(S(N)(=O)=O)cc2)c1N` [HPN-01205, 2-amino-5-((4-chlorophenyl)ethynyl)-4′-sulfamoyl-[1,1′-biphenyl]-3-carboxamide]: the EC50 was determined as 520 nM in the assay with Huh7 cells (setting [1]); 1750 nM in the assay on SREBP-1 (Homo sapiens, Hepatocyte); 2090 nM in the assay on SREBP-2 (Homo sapiens, Hepatocyte).

Turning to `Cc1ccc(NC(=O)/C=C/c2cc(C(N)=O)c(N)c(-c3ccc(S(N)(=O)=O)cc3)c2)cc1` [HPN-01126, (E)-2-amino-5-(3-oxo-3-(p-tolylamino)prop-1-en-1-yl)-4′-sulfamoyl-[1,1′-biphenyl]-3-carboxamide], the EC50 turned out to be 830 nM with Huh7 cells (setting [1]); 2430 nM with SREBP-1 (Homo sapiens, Hepatocyte); 4540 nM in the assay with SREBP-2 (Homo sapiens, Hepatocyte).

Regarding `Nc1c(C(=O)NC2CC2)cc(-c2ccc(Cl)cc2)cc1-c1ccc(S(N)(=O)=O)cc1` [HPN-01605, 4′-amino-4-chloro-N-cyclopropyl-4″-sulfamoyl-[1,1′:3′,1″-terphenyl]-5′-carboxamide], the EC50 in the assay with Huh7 cells (setting [1]) worked out at 690 nM; with SREBP-1 (Homo sapiens, Hepatocyte), 1780 nM; with SREBP-2 (Homo sapiens, Hepatocyte), 2350 nM.

`NC(=O)c1cc(/C=C/C(=O)Nc2ccc(C(=O)O)cc2)cc(-c2ccc(S(N)(=O)=O)cc2)c1N` [HPN-01121, (E)-4-(3-(6-amino-5-carbamoyl-4′-sulfamoyl-[1,1′-biphenyl]-3-yl)acrylamido)benzoic acid]: the EC50 stood at 2140 nM with Huh7 cells (setting [1]); 6590 nM in the assay with SREBP-1 (Homo sapiens, Hepatocyte); 8040 nM in the assay on SREBP-2 (Homo sapiens, Hepatocyte).

Consider `NC(=O)c1cc(-c2ccc(Cl)cc2)cc(-c2ccc(OP(=O)(O)O)cc2)c1N` [HPN-01405, 6′-amino-5′-carbamoyl-4″-chloro-[1,1′:3′,1″-terphenyl]-4-yl dihydrogen phosphate], for which the results for the EC50 in the assay with Huh7 cells (setting [1]), in the assay on SREBP-1 (Hepatocyte) and in the assay with SREBP-2 (Hepatocyte) were 760 nM, 2500 nM and 3980 nM, respectively.

Consider `NC(=O)c1cc(C#CCOC(=O)c2ccccc2Cl)cc(-c2ccc(S(N)(=O)=O)cc2)c1N` [HPN-01210, 3-(6-amino-5-carbamoyl-4′-sulfamoyl-[1,1′-biphenyl]-3-yl)prop-2-yn-1-yl 2-chlorobenzoate], for which the EC50 in the assay with Huh7 cells (setting [1]) worked out at 530 nM; in the assay on SREBP-1 (Homo sapiens, Hepatocyte) it was 1920 nM; in the assay on SREBP-2 (Homo sapiens, Hepatocyte) it was 2970 nM.

On to `NC(=O)c1cc(C#CCOC(=O)c2ccc(O)cc2)cc(-c2ccc(S(N)(=O)=O)cc2)c1N` [HPN-01220, 3-(6-amino-5-carbamoyl-4′-sulfamoyl-[1,1′-biphenyl]-3-yl)prop-2-yn-1-yl 4-hydroxybenzoate], for which the EC50 in the assay with Huh7 cells (setting [1]) turned out to be 460 nM; in the assay on SREBP-1 (Homo sapiens, Hepatocyte), 1590 nM; in the assay with SREBP-2 (Homo sapiens, Hepatocyte) it was 3210 nM.

Take `CCC(=O)Oc1ccc(-c2cc(C(N)=O)c(N)c(-c3ccc(S(N)(=O)=O)cc3)c2)cc1` [HPN-01305, 4′-amino-5′-carbamoyl-4″-sulfamoyl-[1,1′:3′,1″-terphenyl]-4-yl propionate]: the EC50 in the assay with Huh7 cells (setting [1]) stood at 820 nM; in the assay with SREBP-1 (Homo sapiens, Hepatocyte), 1740 nM; in the assay with SREBP-2 (Homo sapiens, Hepatocyte) it was 3900 nM.

As to `NC(=O)c1cc(-c2ccc(Cl)cc2)cc(-c2ccc(S(N)(=O)=O)cc2)c1NC(=O)CCO` [HPN-01516, 4-chloro-4′-(3-hydroxypropanamido)-4″-sulfamoyl-[1, 1′:3′,1″-terphenyl]-5′-carboxamide], the EC50 was 1100 nM in the assay with Huh7 cells (setting [1]); 1910 nM in the assay with SREBP-1 (Homo sapiens, Hepatocyte); 2070 nM with SREBP-2 (Homo sapiens, Hepatocyte).
